From ChEMBL document CHEMBL5241069, “A key review on oxadiazole analogs as potential methicillin-resistant Staphylococcus aureus (MRSA) activity: Structure-activity relationship studies” (Eur J Med Chem, 2021)
Converted amounts (≈) assume the structure as drawn.

Columns and labels:
Staphylococcus aureus [1] = experiment: Antibacterial activity against methicillin resistant Staphylococcus aureus MTCC 84 incubated for 24 hrs by serial dilution method; assay type: functional
Staphylococcus aureus [2] = experiment: Antibacterial activity against methicillin resistant Staphylococcus aureus ATCC 33592 incubated for 24 hrs by Mueller-Hinton broth based assay; assay type: functional
Staphylococcus aureus [3] = experiment: Antimicrobial activity against methicillin resistant Staphylococcus aureus ATCC 25923 assessed as inhibition of bacterial growth by agar diffusion cup plate method; assay type: functional
Staphylococcus aureus [4] = experiment: Antibacterial activity against methicillin resistant Staphylococcus aureus assessed as inhibition of bacterial growth; assay type: functional, organism-based
Staphylococcus aureus [5] = experiment: Antibacterial activity against methicillin resistant Staphylococcus aureus assessed as inhibition zone by CLSI protocol based agar disc diffusion method; assay type: functional
Staphylococcus aureus [6] = experiment: Antimicrobial activity against methicillin resistant Staphylococcus aureus ATCC 43300 assessed as inhibition of bacterial growth incubated for 18 to 24 hrs by broth microdilution method; assay type: functional; settings: time 18-24 hrs
Staphylococcus aureus [7] = experiment: Antibacterial activity against methicillin resistant Staphylococcus aureus incubated for 24 hrs by broth microdilution method; assay type: functional
Staphylococcus aureus [8] = experiment: Antibacterial activity against methicillin resistant Staphylococcus aureus ATCC 43300 assessed as inhibition of bacterial growth incubated for 24 to 48 hrs by spectrophotometric analysis; assay type: functional; settings: time 24-48 hrs
Staphylococcus aureus [9] = experiment: Potency index, ratio of chloramphenicol MIC to test compound MIC for antibacterial activity against methicillin resistant Staphylococcus aureus ATCC 43300 assessed as inhibition of bacterial growth incubated for 24 to 48 hrs by spectrophotometric analysis; assay type: functional; settings: time 24-48 hrs
Staphylococcus aureus [10] = experiment: Potency index, ratio of ciprofloxacin MIC to test compound MIC for antibacterial activity against methicillin resistant Staphylococcus aureus ATCC 43300 assessed as inhibition of bacterial growth incubated for 24 to 48 hrs by spectrophotometric analysis; assay type: functional; settings: time 24-48 hrs
Staphylococcus aureus [11] = experiment: Antibacterial activity against methicillin resistant Staphylococcus aureus MW2 assessed as inhibition of bacterial growth incubated for 16 to 20 hrs by CLSI protocol based Mueller-Hinton broth method; assay type: functional; settings: time 16-20 hrs
[12] = Cytotoxicity against human HepG2 cells assessed as inhibition of cell growth incubated for 24 hrs by WST-1 assay; assay type: toxicity, cell-based; settings: read-out: LD50
Staphylococcus aureus [13] = experiment: Antibacterial activity against methicillin resistant Staphylococcus aureus USA300 assessed as inhibition of bacterial growth incubated for 16 to 20 hrs by CLSI protocol based Mueller-Hinton broth method; assay type: functional; settings: time 16-20 hrs
Staphylococcus aureus [14] = experiment: Potency index, ratio of vancomycin MIC to test compound MIC for antibacterial activity against methicillin resistant Staphylococcus aureus ATCC 43866 assessed as inhibition of biofilm formation incubated for 18 to 24 hrs by tissue culture plate method; assay type: functional; settings: time 18-24 hrs
Staphylococcus aureus [15] = experiment: Antibiofilm activity against methicillin resistant Staphylococcus aureus ATCC 43866 assessed as inhibition of biofilm formation incubated for 18 to 24 hrs by tissue culture plate method; assay type: functional; settings: time 18-24 hrs
Staphylococcus aureus [16] = experiment: Antimicrobial activity against methicillin resistant Staphylococcus aureus USA300 assessed as inhibition of bacterial growth incubated for 16 to 20 hrs by CLSI protocol based method; assay type: functional; settings: time 16-20 hrs
Staphylococcus aureus [17] = experiment: Antimicrobial activity against Staphylococcus aureus Newman assessed as inhibition of bacterial growth incubated for 16 to 20 hrs by CLSI protocol based method; assay type: functional; settings: time 16-20 hrs
Staphylococcus aureus [18] = experiment: Antimicrobial activity against methicillin resistant Staphylococcus aureus A252 assessed as inhibition of bacterial growth incubated for 16 to 20 hrs by CLSI protocol based method; assay type: functional; settings: time 16-20 hrs
Staphylococcus aureus [19] = experiment: Antibacterial activity against methicillin resistant Staphylococcus aureus assessed as inhibition zone by disc diffusion method; assay type: functional
Staphylococcus aureus [20] = experiment: Antimicrobial activity against methicillin resistant Staphylococcus aureus 3 assessed as inhibition of bacterial growth incubated for 16 to 20 hrs by CLSI protocol based Muller-Hinton broth method; assay type: functional; settings: time 16-20 hrs
[21] = Cytotoxicity against rat NRK-52E cells assessed as inhibition of cell growth incubated for 24 hrs by CCK-8 assay; assay type: toxicity, cell-based
Staphylococcus aureus [22] = experiment: Antimicrobial activity against methicillin resistant Staphylococcus aureus 2 assessed as inhibition of bacterial growth incubated for 16 to 20 hrs by CLSI protocol based Muller-Hinton broth method; assay type: functional; settings: time 16-20 hrs
Staphylococcus aureus [23] = experiment: Antimicrobial activity against methicillin resistant Staphylococcus aureus 1 assessed as inhibition of bacterial growth incubated for 16 to 20 hrs by CLSI protocol based Muller-Hinton broth method; assay type: functional; settings: time 16-20 hrs
Staphylococcus aureus [24] = experiment: Antibacterial activity methicillin resistant Staphylococcus aureus NRS 483 (USA 1000) assessed as inhibition of bacterial growth by broth microdilution method; assay type: functional
Staphylococcus aureus [25] = experiment: Antibacterial activity methicillin resistant Staphylococcus aureus NRS 385 (USA 500) assessed as inhibition of bacterial growth by broth microdilution method; assay type: functional
Staphylococcus aureus [26] = experiment: Antibacterial activity methicillin resistant Staphylococcus aureus NRS 108 assessed as inhibition of bacterial growth by broth microdilution method; assay type: functional
Staphylococcus aureus [27] = experiment: Antibacterial activity methicillin resistant Staphylococcus aureus NRS 383 (USA 200) assessed as inhibition of bacterial growth by broth microdilution method; assay type: functional
Staphylococcus aureus [28] = experiment: Antibacterial activity methicillin resistant Staphylococcus aureus NRS 382 (USA 100) assessed as inhibition of bacterial growth by broth microdilution method; assay type: functional
Staphylococcus aureus [29] = experiment: Antibacterial activity methicillin resistant Staphylococcus aureus NRS 119 assessed as inhibition of bacterial growth by broth microdilution method; assay type: functional; settings: NRS119
Staphylococcus aureus [30] = experiment: Antibiofilm activity against methicillin resistant Staphylococcus aureus assessed as reduction in biofilm formation at 2 times of MIC by microtiter plate biofilm formation assay; assay type: functional; set-up: scale not given: the % may be the effect or the level left
Staphylococcus aureus [31] = experiment: Antibacterial activity methicillin resistant Staphylococcus aureus NRS 386 (USA 700) assessed as inhibition of bacterial growth by broth microdilution method; assay type: functional
Staphylococcus aureus [32] = experiment: Antibacterial activity methicillin resistant Staphylococcus aureus NRS 484 (USA 1100) assessed as inhibition of bacterial growth by broth microdilution method; assay type: functional
Staphylococcus aureus [33] = experiment: Antibacterial activity methicillin resistant Staphylococcus aureus 2658 RCMB assessed as inhibition of bacterial growth by broth microdilution method; assay type: functional
Staphylococcus aureus [34] = experiment: Antibacterial activity methicillin resistant Staphylococcus aureus NRS 194 assessed as inhibition of bacterial growth by broth microdilution method; assay type: functional
Staphylococcus aureus [35] = experiment: Antibacterial activity methicillin resistant Staphylococcus aureus NRS384 (USA 300) assessed as inhibition of bacterial growth by broth microdilution method; assay type: functional
Staphylococcus aureus [36] = experiment: Antibacterial activity methicillin resistant Staphylococcus aureus NRS 387 (USA 800) assessed as inhibition of bacterial growth by broth microdilution method; assay type: functional
Staphylococcus aureus [37] = experiment: Antibacterial activity methicillin resistant Staphylococcus aureus NRS123 (USA 400) assessed as inhibition of bacterial growth by broth microdilution method; assay type: functional
[38] = Half-life in rat at 25 mg/kg, po; assay type: ADME, organism-based; settings: in vivo

CN[C@@H]1[C@H](O[C@H]2[C@H](O[C@H]3[C@H](O)[C@@H](O)[C@H](N=C(N)N)[C@@H](O)[C@@H]3N=C(N)N)O[C@@H](C)[C@]2(O)C=O)O[C@@H](CO)[C@H](O)[C@H]1O [STREPTOMYCIN]
MIC (Staphylococcus aureus [1]): > 100 µg/mL

Cc1cc(C(=O)Nc2nnc(-c3ccc(C(F)(F)F)cc3)o2)ccc1S(=O)(=O)N1C[C@H](C)C[C@H](C)C1
MIC (Staphylococcus aureus [2]): 11 µg/mL (≈ 21.1 µM)

COc1ccc(-c2nnc(C)o2)cc1
MIC (Staphylococcus aureus [3]): 25 µg/mL (≈ 131 µM)

2-((phenylbismuthino)thio)-5-(2-(p-tolyl)thiazol-4-yl)-1,3,4-oxadiazole
MIC (Staphylococcus aureus [4]): 1100 nM

Cc1ccc(OCc2nnco2)c(C(=O)c2cccc(Cl)c2)c1
MIC (Staphylococcus aureus [1]): 62.5 µg/mL (≈ 190 µM)

O=P(Oc1ccccc1)(Oc1ccccc1)C(Nc1nnc(-c2cccc(Br)n2)o1)c1cccc(F)c1 (configuration not stated)
inhibition zone (IZ) (Staphylococcus aureus [5]): 17 mm

GENTAMICIN
MIC (Staphylococcus aureus [6]): 100 µg/mL

Nc1scc(-c2ccc(F)cc2)c1-c1nnc(S)o1
MIC (Staphylococcus aureus [7]): 8 µg/mL (≈ 27.3 µM)

C=C(C)C(=O)OCC[N+](C)(C)Cc1nnc(CCCCc2nnc(C[N+](C)(C)CCOC(=O)C(=C)C)o2)o1.[Cl-].[Cl-]
MIC (Staphylococcus aureus [6]): 0.98 µg/mL

O=C(/C=C/c1ccc([N+](=O)[O-])cc1)N1N=C(c2ccncc2)OC1c1cn(-c2ccccc2)nc1-c1ccc(F)cc1 (configuration not stated)
MIC (Staphylococcus aureus [8]): 12.5 µg/mL (≈ 22.3 µM)

O=C(/C=C/c1cccc([N+](=O)[O-])c1)N1N=C(c2ccncc2)OC1c1cn(-c2ccccc2)nc1-c1ccc(F)cc1 (configuration not stated)
MIC (Staphylococcus aureus [8]): > 50 µg/mL

O=C(/C=C/c1ccc(F)cc1)N1N=C(c2ccncc2)OC1c1cn(-c2ccccc2)nc1-c1ccc(F)cc1 (configuration not stated)
Ratio (Staphylococcus aureus [9]): 8 | MIC (Staphylococcus aureus [8]): 6.25 µg/mL (≈ 11.7 µM) | Ratio (Staphylococcus aureus [10]): 4

O=C(Nc1nnc(-c2ccc3c(c2)CCCC3)o1)C1CC1
MBC (Staphylococcus aureus [11]): 16 µg/mL (≈ 56.5 µM) | CC50 at 24 h [12]: > 32 µg/mL | MBC (Staphylococcus aureus [13]): 16 µg/mL (≈ 56.5 µM)

Cn1c(-c2nnc(-c3ccc(Cl)cc3Cl)o2)cc(Br)c1Br
Ratio (Staphylococcus aureus [14]): 4 | MIC (Staphylococcus aureus [15]): 0.78 µg/mL (≈ 1.73 µM)

COc1cc(OC)cc(-c2nnc(NC(=O)c3ccc(S(=O)(=O)C4COCC4(C)C)cc3)o2)c1 (configuration not stated)
MBC (Staphylococcus aureus [11]): 16 µg/mL (≈ 32.8 µM) | MBC (Staphylococcus aureus [13]): 8 µg/mL (≈ 16.4 µM)

O=C(N[C@H](CO)[C@H](O)c1ccc([N+](=O)[O-])cc1)C(Cl)Cl [CHLORAMPHENICOL]
MIC (Staphylococcus aureus [8]): 50 µg/mL (≈ 155 µM)

C[C@@H]1C[C@H](C)CN(S(=O)(=O)c2ccc(C(=O)Nc3nnc(-c4ccc(C(F)(F)F)cc4)o3)cc2)C1
MIC (Staphylococcus aureus [2]): 0.25 µg/mL (≈ 0.492 µM)

O=P(Oc1ccccc1)(Oc1ccccc1)C(Nc1nnc(-c2cccc(Br)n2)o1)c1ccc(F)c(Cl)c1 (configuration not stated)
inhibition zone (IZ) (Staphylococcus aureus [5]): 17 mm

C=C(C)C(=O)OCC[N+](CC)(CC)Cc1nnc(CCCCc2nnc(C[N+](CC)(CC)CCOC(=O)C(=C)C)o2)o1.[Cl-].[Cl-]
MIC (Staphylococcus aureus [6]): 0.98 µg/mL

O=P(Oc1ccccc1)(Oc1ccccc1)C(Nc1nnc(-c2cccc(Br)n2)o1)c1ccc(Cl)c(F)c1 (configuration not stated)
inhibition zone (IZ) (Staphylococcus aureus [5]): 17 mm

O=C(Nc1nnc(-c2ccc(F)cc2)o1)c1ccc(Cl)cc1
MIC (Staphylococcus aureus [16]): 0.64 µg/mL (≈ 2.01 µM) | MIC (Staphylococcus aureus [17]): 1.28 µg/mL (≈ 4.03 µM) | MIC (Staphylococcus aureus [18]): 1.28 µg/mL (≈ 4.03 µM)

O=[N+]([O-])c1ccc(C(Nc2nnc(-c3cccc(Br)n3)o2)P(=O)(Oc2ccccc2)Oc2ccccc2)cc1F (configuration not stated)
inhibition zone (IZ) (Staphylococcus aureus [5]): 17 mm

O=C(O)c1cn(C2CC2)c2cc(N3CCNCC3)c(F)cc2c1=O [CIPROFLOXACIN]
inhibition zone (IZ) (Staphylococcus aureus [19]): 22 mm | MIC (Staphylococcus aureus [1]): > 100 µg/mL

O=C(Nc1nnc(-c2ccc(F)cc2)o1)c1cccc(C(F)(F)F)c1
MIC (Staphylococcus aureus [16]): 0.35 µg/mL (≈ 0.996 µM) | MIC (Staphylococcus aureus [17]): 0.7 µg/mL (≈ 1.99 µM) | MIC (Staphylococcus aureus [18]): 0.7 µg/mL (≈ 1.99 µM)

CCn1cc(C(=O)O)c(=O)c2cc(F)c(N3CCN(Cc4nnc(-c5cccc(OC)c5)o4)CC3)cc21
MIC (Staphylococcus aureus [20]): 1 µg/mL (≈ 1.97 µM) | IC50 at 24 h [21]: > 200 µg/mL | MIC (Staphylococcus aureus [22]): 0.25 µg/mL (≈ 0.493 µM) | MIC (Staphylococcus aureus [23]): 0.5 µg/mL (≈ 0.985 µM)

CCCCC(=O)Nc1nnc(-c2ccc(Cl)cc2)o1
MBC (Staphylococcus aureus [11]): 64 µg/mL (≈ 229 µM) | MBC (Staphylococcus aureus [13]): 8 µg/mL (≈ 28.6 µM)

Cc1nnc(-c2ccc(O)cc2)o1
MIC (Staphylococcus aureus [3]): 25 µg/mL (≈ 142 µM)

Cc1nc(-c2ccc(C(C)(C)C)cc2)sc1-c1nnc(N2CC(O)C2)o1
MIC (Staphylococcus aureus [24]): 4 µg/mL (≈ 10.8 µM) | MIC (Staphylococcus aureus [25]): 4 µg/mL (≈ 10.8 µM) | MIC (Staphylococcus aureus [26]): 4 µg/mL (≈ 10.8 µM) | MIC (Staphylococcus aureus [27]): 4 µg/mL (≈ 10.8 µM) | MIC (Staphylococcus aureus [28]): 4 µg/mL (≈ 10.8 µM) | MIC (Staphylococcus aureus [29]): 4 µg/mL (≈ 10.8 µM) | Activity (Staphylococcus aureus [30]): 41% | MIC (Staphylococcus aureus [31]): 4 µg/mL (≈ 10.8 µM) | MIC (Staphylococcus aureus [32]): 4 µg/mL (≈ 10.8 µM) | MIC (Staphylococcus aureus [33]): 3.12 µg/mL (≈ 8.42 µM) | MIC (Staphylococcus aureus [34]): 4 µg/mL (≈ 10.8 µM) | MIC (Staphylococcus aureus [35]): 4 µg/mL (≈ 10.8 µM) | MIC (Staphylococcus aureus [36]): 4 µg/mL (≈ 10.8 µM) | MIC (Staphylococcus aureus [37]): 4 µg/mL (≈ 10.8 µM) | half-life [38]: 330 min
